Experimental data published in US20100317639A1 (priority 2005, published 2010).

Assays:
[1] = tested on: X-adrenoleukodystrophic fibroblasts; settings: patients suffering from adrenoleucodistrophy; literature; cited from earlier work
ACAT = settings: literature statement; cited from earlier work
[2] = literature, cited from earlier work
[3] = administered in form of triglyceride; literature; cited from earlier work
[4] = tested on: acyl-coenzyme A:cholesterol acetyltransferase enzyme (ACAT); experiment: Effect of the ester on ACAT activity in rat hepatic microsomes (14C-linoleic acid incorporation into cholesterol esters, TLC, beta counter); assay type: biochemical; settings: rat liver microsomes 200 micrograms, mean+/-standard error
Method: For the experiments of effectiveness a test to evaluate the effect of the ester formed from linoleic acid obtained from example 1 and example 4 on acyl-coenzyme A:cholesterol acetyltransferase enzyme (ACAT) activity was performed. The experiment was performed in vitro according to a classic pharmacology method, used for the evaluation of the activity of this enzyme, reported in the method book: Drug discovery and evaluation, Pharmacological assay, Ed. H. G: Vogel (Springer), p. 1119, 2002.
Hepatic microsomes were prepared as well as in the example 1.
Eight tubes were prepared, in all tubes linoleic acid-^14C (10 microM) was incubated in presence of 200 micrograms of microsomes. Each tube contained phosphate buffer 0.04 M KH2PO4, pH 7.4 with 0.05 M KCl, 0.03 EDTA, 0.3 M sucrose, 1 mM α-cyclodextrin, final volume 750 microliters. The eight tubes have been incubated at 37° C. for 10 min.
The esters of example 1 and 4 were pooled together and three sample solutions of concentration 12.5, 25 and 50 micromolar respectively were prepared in duplicate, therefore obtaining six sample solutions.
The six sample solutions were then transferred respectively in six of eight tubes prepared as above at the end of the 10 minutes (each concentration of ester separately incubated per tube). The seventh tube was added with ^14C-linoleic acid alone (without esters) and the eighth with ethanol alone (carrier in which the esters were resuspended) to evaluate a possible effect of ethanol on the enzymatic activity. All the eight tubes have been incubated at 37° C. for four minutes.
At the end of the time the reaction was stopped by adding chloroform:methanol 2:1. The samples of the eight tubes were extracted according to the Folch's method (1957). The lower phase of each sample containing the lipid extracts was separated and dried, then taken-up again in 1 ml of chloroform:methanol 2:1. The extract of each sample was dried and subjected to TLC. […]
Spots were highlighted through iodine vapour. The bands which correspond to the standard for each TLC were taken off from the plate and counted in beta counter. […]

C[C@]12CC[C@@H](O)C[C@@H]1CC[C@@H]1[C@@H]2CC[C@]2(C)[C@@H](O)CC[C@@H]12 [5α-androstan-3α,17β-diol]
beta-oxidation [1]: increase beta-oxidation | cholesterol esterification processes [1]: reduce cholesterol esterification processes

CCCCCCCN(Cc1ccc(CC(C)(C)C)cc1)C(=O)Nc1ccc(F)cc1F [CL 277,082, N-(2,4-difluorophenyl)-N-(4-neopentylbenzyl)-N-(n-heptyl)urea]
inhibiting the ACAT activity (ACAT): very strong and specific

C[C@]12CCC(=O)C[C@@H]1CC[C@@H]1[C@@H]2CC[C@]2(C)[C@@H](O)CC[C@@H]12 [dihydrotestosterone, 5α-androstan-17β-ol-3-one]
beta-oxidation [1]: increase beta-oxidation | cholesterol esterification processes [1]: reduce cholesterol esterification processes

CCCCCCCC/C=C\CCCCCCCCCCCC(=O)O [erucic acid, erucic acid (C22:1)]
effectiveness in vivo ([2]; administered in form of triglyceride): little effective | crossing of the hematoencephalic barrier ([2]; in vivo): failed to cross the hematoencephalic barrier | effectiveness in vitro [3]: only partially effective

monoester of the androgen 5α-androstan-3α,17β-diol (3α-diol) and of the linoleic acid (LA) (cis,cis-9,12-octadecadienoic acid) (18:2, n-6) [Example 1]
inhibition percentage with reference to the untreated sample ([4]; ester 12.5 microM): 2.5 | inhibition percentage with reference to the untreated sample ([4]; ester 25 microM): 44% | inhibition percentage with reference to the untreated sample ([4]; ester 50 microM): 28%
